Results from the supplement of paper PMC9386025.

Key:
Assay in all cases: drug sensitivity score (DSS) (DSS (dimensionless)); higher = more sensitive (stronger drug response)
FIMM-PDC1 = patient-derived ovarian cancer cells; conditions: genetic perturbation: none (patient-derived cell culture)
Summary of the method: (§1)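 Ovarian cancer cell lines, after at least three days of shRNA induction with 100 ng/ml doxycycline, and patient-derived cultures were plated at 1 000 – 1 500 cells per well into 384-well plates pre-loaded with drugs at five concentrations spanning a 10,000-fold range. Plates were then kept for three days at 37 °C and 5.0 % CO2. Viability was measured as CellTiter-Glo luminescence on a PHERAstar FS, and each drug's dose-response curve was reduced to a drug sensitivity score computed by a previously described method.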

FIMM-PDC3 = patient-derived ovarian cancer cells; conditions: genetic perturbation: none (patient-derived cell culture)
Summary of the method: as §1

FIMM-PDC4 = patient-derived ovarian cancer cells; conditions: genetic perturbation: none (patient-derived cell culture)
Summary of the method: as §1

FIMM-PDC5 = patient-derived ovarian cancer cells; conditions: genetic perturbation: none (patient-derived cell culture)
Summary of the method: as §1

FIMM-PDC6 = patient-derived ovarian cancer cells; conditions: genetic perturbation: none (patient-derived cell culture)
Summary of the method: as §1

FIMM-PDC7 = patient-derived ovarian cancer cells; conditions: genetic perturbation: none (patient-derived cell culture)
Summary of the method: as §1

JHOS2 = test system: JHOS2
Summary of the method: as §1

Kuramochi = test system: Kuramochi
Summary of the method: as §1

OVSAHO = test system: OVSAHO
Summary of the method: as §1

FIMM-PDC2 = patient-derived ovarian cancer cells; conditions: genetic perturbation: none (patient-derived cell culture)
Summary of the method: as §1

[1] = genetic perturbation: DOX-induced PTK7 shRNA knockdown
[2] = genetic perturbation: DOX-induced control shRNA

| Structure (SMILES) | drug sensitivity score (FIMM-PDC1) | drug sensitivity score (FIMM-PDC3) | drug sensitivity score (FIMM-PDC4) | drug sensitivity score (FIMM-PDC5) | drug sensitivity score (FIMM-PDC6) | drug sensitivity score (FIMM-PDC7) | drug sensitivity score (JHOS2; [1]) | drug sensitivity score (JHOS2; [2]) | drug sensitivity score (Kuramochi; [1]) | drug sensitivity score (Kuramochi; [2]) | drug sensitivity score (OVSAHO; [1]) | drug sensitivity score (OVSAHO; [2]) | drug sensitivity score (FIMM-PDC2) |
| --- | --- | --- | --- | --- | --- | --- | --- | --- | --- | --- | --- | --- | --- |
| CC(C)Nc1cc(-c2c[nH]c(C(=O)N[C@H](CO)c3cccc(Cl)c3)c2)c(Cl)cn1 [Ulixertinib] | 0.15 | 6.4 | 13.1 | 14.3 | 12.3 | 12 | 2.8 | 6.8 | 10.2 | 3.3 | 7.3 | 5 |  |
| Cn1ncc(Cl)c1-c1cc(C(=O)N[C@H](CN)Cc2ccc(F)c(F)c2)oc1Cl [Uprosertib] | 1.9 | < 0 | 5 | 8.9 | 6.8 | 6.5 | 0.6 | 0.2 | 1.55 | < 0 | < 0 | 2.5 |  |
| C=CC(=O)N1CC/C(=C\c2ccc(F)c([N+](=O)[O-])c2)C(=O)/C(=C/c2ccc(F)c([N+](=O)[O-])c2)C1 [VLX1570] | 12.1 | 18.5 | 16.9 | 22.3 | 19.6 | 20.5 | 25.9 | 15.3 | 23.4 | 16.4 | 23.2 | 19.4 |  |
| CNC(=O)c1ccccc1Nc1cc(Nc2ccc(N3CCOCC3)cc2OC)ncc1C(F)(F)F [VS-4718] | 5.4 | 3.8 | 9.2 | 8 | 10.3 | 5.4 | 5.9 | 3.7 | 10.8 | 4.8 | 5.7 | 9.9 |  |
| CCCCC(=O)OCC(=O)[C@]1(O)Cc2c(O)c3c(c(O)c2[C@@H](O[C@H]2C[C@H](NC(=O)C(F)(F)F)[C@H](O)[C@H](C)O2)C1)C(=O)c1c(OC)cccc1C3=O [Valrubicin] | 5.75 | 7.3 | 7.7 | 8 | 7.2 | 7 | 5.7 | 7.5 | 5.25 | 5.1 | 6.7 | 5.8 |  |
| C[C@@H]1COC(Nc2ccc3ncnc(Nc4ccc(OCc5nccs5)c(Cl)c4)c3c2)=N1 [Varlitinib] | 1.1 | 8.6 | 9.5 | 12.6 | 5.2 | 6.9 | < 0 | < 0 | 0.05 | < 0 | 1.2 | < 0 |  |
| O=C(/C=C\n1cnc(-c2cc(C(F)(F)F)cc(C(F)(F)F)c2)n1)NNc1ccccn1 [Verdinexor] | 3.7 | 10.9 | 11.2 | 11 | 11.7 | 11.5 | 11.3 | 7.7 | 4.4 | 5.2 | 6.1 | 3.2 |  |
| CC[C@]1(O)C[C@@H]2CN(CCc3c([nH]c4ccccc34)[C@@](C(=O)OC)(c3cc4c(cc3OC)N(C)[C@H]3[C@@](O)(C(=O)OC)[C@H](OC(C)=O)[C@]5(CC)C=CCN6CC[C@]43[C@@H]65)C2)C1 [Vinblastine] | 15.3 | 13 | 7.6 | 8.2 | 0.7 | 8.9 | 3.7 | 9.7 | 2.8 | 3.9 | 2 | 9 |  |
| CCC1=C[C@@H]2CN(C1)Cc1c([nH]c3ccccc13)[C@@](C(=O)OC)(c1cc3c(cc1OC)N(C)[C@H]1[C@@](O)(C(=O)OC)[C@H](OC(C)=O)[C@]4(CC)C=CCN5CC[C@]31[C@@H]54)C2 [Vinorelbine] | 19.2 | 26.2 | 26.7 | 27.2 | 18.6 | 12.8 | 19.4 | 17.1 | 20.3 | 7.2 | 22.6 | 18.5 |  |
| CNC(=O)c1cccc(-c2ccc3c(N4CCOC[C@@H]4C)nc(N4CCOC[C@@H]4C)nc3n2)c1 [Vistusertib] | 8.75 | 7.8 | 14.9 | 23.9 | 13 | 18.6 | 6.1 | 10.5 | 9.7 | 12.4 | 12.6 | 14.3 |  |
| CC[C@@H]1C(=O)N(C)c2cnc(Nc3ccc(C(=O)N[C@H]4CC[C@H](N5CCN(CC6CC6)CC5)CC4)cc3OC)nc2N1C(C)C [Volasertib] | 3.9 | 7 | 6 | 14.8 | 0.9 | 4.2 | 14.2 | 4.7 | 9.65 | 2.4 | 6.4 | 6.4 |  |
| O=C(CCCCCCC(=O)Nc1ccccc1)NO [Vorinostat] | 6 | 7.9 | 4.9 | 10.4 | 10.1 | 6.3 | 3.2 | 6.1 | 9.45 | 4.8 | 8.3 | 7.2 |  |
| Oc1nc(-c2ccc(C(F)(F)F)cc2)nc2c1CSCC2 [XAV-939] | 1.1 | 1.5 | 1.6 | 6.3 | 4.1 | 10.8 | < 0 | 0.7 | 0.35 | 0.1 | 2.1 | 3 |  |
| FC(F)c1nc2ccccc2n1-c1nc(N2CCOCC2)nc(N2CCOCC2)n1 [ZSTK474] | 8.5 | 10 | 13.9 | 17.4 | 11.8 | 15.7 | 6.6 | 8.1 | 13.8 | 7.5 | 13.5 | 14 |  |
| Cc1sc2c(c1C)C(c1ccc(Cl)cc1)=N[C@@H](CC(=O)NCCCCNC(=O)COc1cccc3c1C(=O)N(C1CCC(=O)NC1=O)C3=O)c1nnc(C)n1-2 (stereo partly specified) [dBET1] | 0.1 | 2.7 | 8.1 | 11 | 7.5 | 5.8 | 3.2 | 5.5 | 3.9 | 4.4 | 4.3 | 3.4 | 2.6 |
